This assay has as its system Hepatocyte spheroids. The experiment in a line: Cell viability is assessed by cellular ATP assay using CellTiter-Glo Luminescent kit. Viability is expressed as average RLU from biological replicates and normalized to negative control.Toxicity is defined as those with normalized ATP significantly less than 80 percent of the negative control. It counts as functional, Homo sapiens. Set-up: unit not given here. Background: In ATP-based viability assays light output follows the ATP content of the culture.

In turn, `Cc1c(NC(=O)c2ccc(C(C)(C)C)cc2)cccc1-c1cn(C)c(=O)c(Nc2ccc(C(=O)N3CCOCC3)cc2)n1` displayed a Proliferation of 0.2187.

`CCOC(=O)c1c(/C(C#N)=C\N)c2ccc(Cl)c(Cl)c2n1C` had a Proliferation of 0.874.

Regarding `CCOc1cc(N2CCC(O)CC2)ccc1Nc1ncc2c(n1)N(C)c1ccccc1C(=O)N2C`, the Proliferation stood at 0.02286.

In turn, `CNc1nc(-c2ccc3c(N)n[nH]c3c2)cc(N2C[C@@H](C(=O)NC3CCCCC3)CC[C@H]2C)n1` gave a Proliferation of 0.1604.

The molecule `CCn1c(-c2nonc2N)nc2c(C#CC(C)(C)O)ncc(OCC3CCCNC3)c21` (stereo not given) came in with a Proliferation of 0.006402.

Turning to `Cn1cc(-c2ccc3c(c2)CCN3C(=O)Cc2cccc(C(F)(F)F)c2)c2c(N)ncnc21`, the Proliferation stood at 0.03291.

`CCCCNc1ncc(-c2ccc(CN3CCOCC3)cn2)c(N[C@H]2CC[C@H](O)CC2)n1`: the Proliferation is 0.01481.

`COc1cc2c(cc1OCCCN1CCCC1)N=C(N)C21CCC1` displayed a Proliferation of 0.2543.

Turning to `COc1ccccc1-c1cc(Nc2cccc(CS(N)(=O)=O)c2)ncn1`, the Proliferation came to 0.2719.

Regarding `COc1ccccc1C(=O)Nc1cc2c(cc1N1CCCC1)n(C)c(=O)n2C`, the Proliferation amounted to 0.003878.

`Nc1nc(NC2CC2)cc(-c2cccc(Cl)c2Cl)n1` displayed a Proliferation of 0.05031.

Consider `COc1cc(-c2cn(C)c(=O)c3cnccc23)c(OC)cc1CN(C)C`, for which the Proliferation is reported as 0.1518.

In turn, `CC(=O)c1cc(-c2cc(C(=O)NC3CC3)ccc2C)c2ncccn12` registered a Proliferation of 0.01914.

`CN1C[C@H](Nc2cnn(C)c(=O)c2Br)C[C@H](c2ccccc2)C1` had a Proliferation of 0.003884.

Take `Cc1cc2c(cc1N1C(=O)c3cccc4c(CCCO)ccc(c34)C1=O)n(C)c(=O)n2C`: the Proliferation was 0.07854.

With `CN(C)[C@H]1CN(C2CCc3cccc(F)c32)C[C@@H]1c1ccc(N2CCN(S(C)(=O)=O)CC2)cc1` (stereo not given in full), the Proliferation was determined as 0.

The molecule `Nc1ncnc2c1ccn2[C@@H]1O[C@H]([C@H](O)c2ccccc2)[C@@H](O)[C@H]1O` yielded a Proliferation of 0.1599.

Take `CO[C@H]1CNC[C@@H](OCC2CCC(F)(F)CC2)[C@@H]1Nc1ncc(-c2cncc(C)c2)c2cc(C)c(=O)[nH]c12`: the Proliferation is 0.02957.

`COc1cc(Nc2ccnc3ccc(Br)cc23)cc(OC)c1OC` gave a Proliferation of 0.5391.

Molecule `CCN(CC)S(=O)(=O)Nc1cccc(-c2ccc3c(NC(=O)C4CC4)n[nH]c3c2)c1` gave a Proliferation of 0.0004.

In the case of `Cc1cn(-c2cc(NC(=O)c3ccc4c(c3)CN(c3cncnc3)C[C@@H]4C)cc(C(F)(F)F)c2)cn1`, the Proliferation is listed as 0.4149.

The molecule `CNCCN1CCC(c2cc(CN(C)C(=O)c3cccc(Oc4ccccc4)c3)ccn2)CC1` registered a Proliferation of 0.03291.

Consider `CN(C)C(=O)/C(C#N)=C/c1ccc(-c2nc3cnc4[nH]ccc4c3n2C2CCCCC2)o1`, for which the Proliferation came out at 0.07463.

For `COc1c(C)cc(NC(=O)c2nn(Cc3ccc(F)cc3)c3c2CN(C(=O)c2ccc[nH]2)C[C@]3(C)C(N)=O)cc1C`, the Proliferation is recorded as 0.06587.

The molecule `Cc1nnc2c3ccccc3c(N[C@@H](C)[C@H](c3ccccc3)N(C)C)nn12` had a Proliferation of 0.0435.

In turn, `Cl.Cl.NC1(c2ccc(-c3nc4ccn5c(=O)[nH]nc5c4cc3-c3ccccc3)cc2)CCC1` registered a Proliferation of 0.5443.

Regarding `CCCCN(CCCC)C(=O)CN1C[C@H](c2cc(OC)c3c(c2)OCO3)[C@@H](C(=O)O)[C@@H]1CC(C)(C)CCC.Cc1ccc(S(=O)(=O)O)cc1`, the Proliferation worked out at 0.6131.

Take `CCCCN(CCCC)C(=O)CN1C[C@@H](c2cc(OC)c3c(c2)OCO3)[C@H](C(=O)O)[C@H]1CC(C)(C)CCC.Cl`: the Proliferation is recorded as 0.1508.

The molecule `CCNC(=O)c1cc2c(N3CCOCC3C)ccnc2[nH]1` (stereo not given) displayed a Proliferation of 0.05192.

Molecule `COc1ccccc1C(=O)Nc1cc2c(cc1N1CCNCC1C)n(C)c(=O)n2C` (stereo not given) had a Proliferation of 0.1835.
